Key:
[1] = test system: NGF differentiated PC12 cells; assay: Survival of NGF differentiated PC12 cells after apoptosis initiating insult (counting intact nuclei); type: cell-based
Protocol: PC12 cells (ATCC, Manassas, Md.) were propagated in minimum essential medium (MEM) containing 10% horse serum, 5% fetal bovine serum, 2 mM L-glutamine, 50 units/ml penicillin, and 50 μg/ml streptomycin (MEM with serum, MIS), all purchased from Life Technologies (Rockville, Md.). The cells were grown on 24 well plates (8×10^4 cells/well) for counting of intact nuclei as an estimate of survival, poly-L-lysine treated coverslips (1×10^4 cells/coverslip) for imaging with epiflorescence microscopy or laser confocal scanning microscopy (LCSM) or 100 mm dishes (1×10^6 cells/plate) for protein chemistry. The cells were differentiated for 6 days in M/S supplemented with 100 ng/ml 7S NGF (Upstate Biotech., Lake Placid, N.Y.). MEM with serum and NGF is abbreviated as M/S+N (see (Tatton et al., 1994, J. Neurochemistry, 63:1572-1575; Wadia et al., J. Neuroscience, 1998, 18: 932-947; Carlile et al., 2000, Molecular Pharmacology, 57:2-12) for further details of culture and treatment). Serum and NGF Withdrawal: Following incubation for 6 days in MEM with serum and NGF, cells underwent three successive washes in Hanks' Balanced Salt Solution (HBSS; Life Technologies, Rockville, Md.) to remove NGF and serum-borne trophic agents and then were replaced into MEM with serum and NGF for controls or into MEM without serum and NGF to induce apoptosis by serum and NGF withdrawal. C2-Ceramide, Rotenone, Peroxide, and Atractyloside Exposure: After 6 days of exposure to serum and NGF, cultures maintained in MEM with serum and NGF were treated for 24 hours with either vehicle (HBSS) as a control, or concentrations of C2-ceramide in HBSS varying from 2 to 50 μM, concentrations of rotenone in BSS varying from 2 to 50 nM, concentrations of H2O2 in HBSS varying from 0.01 to 0.25 mM H2O2 or concentrations of atractyloside in HBSS varying from 2 to 20 mM. Both cell survival and the percentages of cells with evidence of apoptotic nuclear degradation were assessed for all treatments. To estimate survival, the cells were seeded at a density of 8×10^4 cells/well in 24 well plates. Cells were harvested 24 hours after treatment and lysed. Intact nuclei were counted using a hemocytometer (see see (Tatton et al., 1994, J. Neurochemistry, 63:1572-1575; Wadia et al., J. Neuroscience, 1998, 18: 932-947; Carlile et al., 2000, Molecular Pharmacology, 57:2-12) for details of treatment and counting methods). The capacity of phosphatidic acid to increase survival, decrease apoptosis and maintain mitochondrial membrane potential was determined by counting intact nuclei as an indicator of cell survival, determining the percentages of cells with nuclear chromatin (DNA) condensation by staining cells with YOYO-1, a nucleic acid binding dye, and measuring mitochondrial potentiometric dye fluorescence by imaging them with florescence microscopy.

[2] = test system: cerebellar granule neurons; assay: Survival of cerebellar granule neurons after glutamate (counting intact nuclei); type: cell-based, rat; settings: apoptosis initiating insult: Glutamate
Protocol: (§1) Cerebellar granule neurons were obtained from postnatal day 7 rat pups by enzymatic digestion and maintained in serum supplemented Eagle's Basal medium. Viable cells were plated at a density of 500,000 cells/ml onto poly-L-lysine coated tissue culture plastic or glass coverslips. Cytosine arabinoside (Ara-C) (10 μM) was added at 24 hours to halt glial proliferation. To induce apoptosis in the cerebellar granule neurons, 10^−4 to 10^−6 M glutamate was added on day 7 to the culture.
Both cell survival and the percentages of cells with evidence of apoptotic nuclear degradation were assessed for all treatments. […] Intact nuclei were counted using a hemocytometer (see see (Tatton et al., 1994, J. Neurochemistry, 63:1572-1575; Wadia et al., J. Neuroscience, 1998, 18: 932-947; Carlile et al., 2000, Molecular Pharmacology, 57:2-12) for details of treatment and counting methods).
(§2) The capacity of phosphatidic acid to increase survival, decrease apoptosis and maintain mitochondrial membrane potential was determined by counting intact nuclei as an indicator of cell survival, determining the percentages of cells with nuclear chromatin (DNA) condensation by staining cells with YOYO-1, a nucleic acid binding dye, and measuring mitochondrial potentiometric dye fluorescence by imaging them with florescence microscopy.

[3] = test system: NGF differentiated PC12 cells; assay: Nuclei with chromatin condensation (YOYO-1 staining) in NGF differentiated PC12 cells; type: cell-based
Protocol: PC12 cells (ATCC, Manassas, Md.) were propagated in minimum essential medium (MEM) containing 10% horse serum, 5% fetal bovine serum, 2 mM L-glutamine, 50 units/ml penicillin, and 50 μg/ml streptomycin (MEM with serum, MIS), all purchased from Life Technologies (Rockville, Md.). The cells were grown on 24 well plates (8×10^4 cells/well) for counting of intact nuclei as an estimate of survival, poly-L-lysine treated coverslips (1×10^4 cells/coverslip) for imaging with epiflorescence microscopy or laser confocal scanning microscopy (LCSM) or 100 mm dishes (1×10^6 cells/plate) for protein chemistry. The cells were differentiated for 6 days in M/S supplemented with 100 ng/ml 7S NGF (Upstate Biotech., Lake Placid, N.Y.). MEM with serum and NGF is abbreviated as M/S+N (see (Tatton et al., 1994, J. Neurochemistry, 63:1572-1575; Wadia et al., J. Neuroscience, 1998, 18: 932-947; Carlile et al., 2000, Molecular Pharmacology, 57:2-12) for further details of culture and treatment). […]
(§3) Percentages of cells with apoptotic nuclei were determined for cells grown on poly-L-lysine treated coverslips (density 1×10^4/coverslip). […] The total number of YOYO-1 stained nuclei with chromatin condensation were counted on twenty-five 40× fields for each coverslip, each field chosen by pairs of randomly-generated x-y coordinates. The proportion of nuclei with chromatin condensation were expressed as a percentage of the total number of cells in each field. […]
as §2

[4] = test system: cerebellar granule neurons; assay: Nuclei with chromatin condensation (YOYO-1 staining) in cerebellar granule neurons after glutamate; type: cell-based, rat; settings: apoptosis initiating insult: Glutamate
Protocol: as §1, §3, §2

[5] = test system: NGF differentiated PC12 cells; assay: Mitochondrial membrane potential by potentiometric dye fluorescence (TMRM, CMTMR) in NGF differentiated PC12 cells; type: cell-based
Protocol: Live cell ΔψM measurement: Cells on polylysine coated coverglass were incubated with 100 nM tetramethylrodaminemethylester (TMRM, Molecular probes, Eugene, Oreg.) or 10 μg/ml JC-1 (Molecular Probes, Eugene, Oreg.) to provide an estimate of ΔψM. The coverslips were transferred to a gas and temperature controlled circulating live cell chamber (Medical Systems Corp., Greenvale, N.Y.). A thermocoupler immersed in the medium maintained the media temperature at 37±0.1° C. TMRM, JC-1 and chloromethyltetramethylrosamine (CMTMR, Molecular probes, Eugene, Oreg.) and JC-1 stained cells were imaged 10 minutes following dye addition and images were collected every 3 minutes for approximately 20 minutes.
Fixed cell ΔψM Measurement. After treatment of NGF differentiated PC12 cells on poly-L-lysine coated 12 mm coverslips, the fixable potentiometric dye, CMTMR, was added at 137 nM for 15 minutes at 37° C. and simultaneous immunocytochemistry was performed. The cells were then rinsed once with warm Dulbecco's PBS prior to overnight fixation with ice cold 4% paraformaldehyde in PB and mounted onto slides with the aqueous mounting medium, Aquamount (Gallard-Schlesinger Ind., Garden City, N.Y.).
Florescence Microscopy. Images were obtained using a Leica TCS4D confocal microscope coupled to an argon-krypton laser or a standard epi-floresence microscope. The images were scanned or imaged using an oil immersion 100×1.4 N.A. objective to minimize focal depth. CMTMR and TMRM treated cells were imaged using 568 nm excitation and detected with 600/30 nm band pass filter. The JC-1 incubated cells were imaged using 488 nm excitation and detected using 530/30 nm band pass and 590 nm long pass filters observed by separate detectors. Image resolution was 512×512×8 bits per pixel. […] To measure the intensity of mitochondrial potentiometric dye fluorescence, pixel intensity measurements from 20-40 mitochondria from each of 50-70 cells per treatment, per experiment were obtained by placing a 3×3 pixel box at 2 points in each mitochondrion. The fluorescence intensity values were automatically exported to an Excel spreadsheet for subsequent analysis in MicroCal Origin (Northampton, Mass.). […]
as §2

[6] = apoptosis initiating insult: Serum and NGF Withdrawal

Substance: phosphatidic acid [PA]
- increase of cell survival by varying concentrations of phosphatidic acid ([1]; after exposure to 0.1 mM H2O2 which kills about 60% of the cells (FIG. 3C)): does not substantially increase
- PA reduced apoptosis ([1]; apoptosis initiated by peroxide or atractyloside, 2 to 30 μM PA): not
- PA Increases Survival ([1]; apoptosis initiating insult: Atractyloside, 24 hours): No
- PA Increases Survival ([1]; apoptosis initiating insult: Ceramide (C2-ceramide), 24 hours): Yes - FIG. 2A
- PA Increases Survival ([1]; apoptosis initiating insult: Ceramide (C2-ceramide), 24 hours, listed as Phosphatidic acid): increase cell survival
- PA Increases Survival ([1]; apoptosis initiating insult: Peroxide (H2O2), 24 hours, listed as phosphatidic acid): does not alter survival
- PA Increases Survival ([1]; apoptosis initiating insult: Rotenone, 24 hours, listed as Phosphatidic acid): increase cell survival
- PA Increases Survival [1, 6]: Yes - FIG. 3B
- PA Increases Survival ([1]; apoptosis initiating insult: Serum and NGF Withdrawal, listed as Phosphatidic acid): increase cell survival
- PA Increases Survival [2]: Yes
- PA Increases Survival ([2]; listed as Phosphatidic acid): increase cell survival
- PA Decreases Nuclei With Chromatin Condensation ([3]; apoptosis initiating insult: Ceramide): Yes
- PA Decreases Nuclei With Chromatin Condensation ([3]; apoptosis initiating insult: Rotenone): Yes
- PA Decreases Nuclei With Chromatin Condensation [3, 6]: Yes
- PA Decreases Nuclei With Chromatin Condensation [4]: Yes
- PA Reduces Decreases In Mitochondrial Membrane Potential ([5]; apoptosis initiating insult: Ceramide, dyes TMRM and CMTMR, listed as phosphatidic acid): reduces
- PA Reduces Decreases In Mitochondrial Membrane Potential ([5]; apoptosis initiating insult: Rotenone, dyes TMRM and CMTMR): Yes - FIG. 4C
- PA Reduces Decreases In Mitochondrial Membrane Potential ([5]; apoptosis initiating insult: Rotenone, dyes TMRM and CMTMR, listed as phosphatidic acid): reduces
- PA Reduces Decreases In Mitochondrial Membrane Potential [5, 6]: Yes

Source: patent US20040127468A1, “Methods and compositions for treating apoptosis associated disorders” (priority 2001, published 2004)
